Measured values from patent US9580390B2, “Indazole compounds as kinase inhibitors and method of treating cancer with same” (University Health Network, priority 2011, dated 2017).
Read-outs that look alike come from different tables or passages of the source.

Assays:
[1] = molecular target: T1, human TTK (Homo sapiens, UniProt P33981); experiment: TTK inhibition assay (indirect ELISA); format: biochemical
T1 construct: amino terminal GST fusion of full length human TTK; purchased Invitrogen
T1 sequence (P33981 1-857): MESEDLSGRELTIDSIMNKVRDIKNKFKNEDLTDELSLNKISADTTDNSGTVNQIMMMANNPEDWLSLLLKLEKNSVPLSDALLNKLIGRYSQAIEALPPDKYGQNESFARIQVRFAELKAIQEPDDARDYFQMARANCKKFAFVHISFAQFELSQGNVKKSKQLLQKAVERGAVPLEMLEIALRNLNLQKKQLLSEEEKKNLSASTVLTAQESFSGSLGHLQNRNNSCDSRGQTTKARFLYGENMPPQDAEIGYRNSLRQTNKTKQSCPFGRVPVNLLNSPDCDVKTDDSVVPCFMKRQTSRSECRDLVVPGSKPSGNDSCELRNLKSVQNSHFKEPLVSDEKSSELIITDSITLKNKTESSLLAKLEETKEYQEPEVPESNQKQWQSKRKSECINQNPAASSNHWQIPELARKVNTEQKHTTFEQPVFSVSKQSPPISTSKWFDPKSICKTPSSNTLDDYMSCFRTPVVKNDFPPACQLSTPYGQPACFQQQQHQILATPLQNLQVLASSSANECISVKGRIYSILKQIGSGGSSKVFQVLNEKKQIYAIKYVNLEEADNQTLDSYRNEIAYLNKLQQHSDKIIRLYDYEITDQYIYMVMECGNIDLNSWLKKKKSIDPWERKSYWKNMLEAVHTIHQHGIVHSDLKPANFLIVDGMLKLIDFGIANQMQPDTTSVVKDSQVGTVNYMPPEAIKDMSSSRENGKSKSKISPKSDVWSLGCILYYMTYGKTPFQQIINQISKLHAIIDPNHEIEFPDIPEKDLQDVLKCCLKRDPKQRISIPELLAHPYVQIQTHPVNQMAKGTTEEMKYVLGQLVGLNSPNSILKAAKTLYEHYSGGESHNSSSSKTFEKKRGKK

[2] = system: TICs (Ovarian 2393A); experiment: Ovarian tumor-initiating cell growth inhibition (Alamar Blue); format: cell-based; conditions: 144 h; Ovarian 2393A TICs, 6 days; read-out: Tumor Initiating Cell GI50 Range Ovarain 2393A
[3] = molecular target: T2, cKit (V560G) (Homo sapiens, UniProt P10721, V560G); experiment: Panel of 270 human kinases (Millipore); format: biochemical
T2 construct: purchased Millipore Corporation
T2 sequence (P10721 26-976 V560G): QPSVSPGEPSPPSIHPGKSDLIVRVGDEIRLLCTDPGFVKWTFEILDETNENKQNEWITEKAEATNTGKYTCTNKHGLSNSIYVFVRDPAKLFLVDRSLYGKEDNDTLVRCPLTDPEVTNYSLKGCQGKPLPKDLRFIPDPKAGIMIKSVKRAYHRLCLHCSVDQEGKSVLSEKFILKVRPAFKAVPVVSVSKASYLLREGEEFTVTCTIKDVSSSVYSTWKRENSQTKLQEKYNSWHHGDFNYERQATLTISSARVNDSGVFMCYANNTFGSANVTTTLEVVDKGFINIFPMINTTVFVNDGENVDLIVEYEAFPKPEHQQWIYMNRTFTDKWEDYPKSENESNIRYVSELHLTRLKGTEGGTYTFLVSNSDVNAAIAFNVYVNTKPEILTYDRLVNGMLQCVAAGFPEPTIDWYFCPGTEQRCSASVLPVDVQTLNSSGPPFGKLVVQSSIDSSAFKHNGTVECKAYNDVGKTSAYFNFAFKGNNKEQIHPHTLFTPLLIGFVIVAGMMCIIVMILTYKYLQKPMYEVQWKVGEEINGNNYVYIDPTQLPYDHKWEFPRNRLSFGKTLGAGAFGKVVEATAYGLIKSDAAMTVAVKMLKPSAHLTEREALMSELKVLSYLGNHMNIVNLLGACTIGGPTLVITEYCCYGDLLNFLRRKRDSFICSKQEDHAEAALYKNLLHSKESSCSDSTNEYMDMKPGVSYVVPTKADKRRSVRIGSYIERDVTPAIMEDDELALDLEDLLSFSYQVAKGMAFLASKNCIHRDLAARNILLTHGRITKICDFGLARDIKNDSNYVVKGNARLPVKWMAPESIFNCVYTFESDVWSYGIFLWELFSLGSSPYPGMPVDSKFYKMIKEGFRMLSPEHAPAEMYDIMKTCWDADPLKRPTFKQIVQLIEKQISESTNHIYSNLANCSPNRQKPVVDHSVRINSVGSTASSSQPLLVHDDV
Protocol: (§1) The inhibitory activity of selected compounds of the invention (A335, A405, A410, A261, A300 and A363) was evaluated against a panel of 270 different human kinase enzymes by Millipore Corporation. The % Inhibition was determined by the formula: % Inhibition=100×(1−(experimental value−background value)/(high activity control−background value)).

[4] = molecular target: T3, MAPK2 (Homo sapiens, UniProt P28482); experiment: Panel of 270 human kinases (Millipore); format: biochemical
T3 construct: purchased Millipore Corporation
Protocol: as §1

[5] = molecular target: T4, Met(Y1248C) (Homo sapiens, UniProt P08581, Y1230C); experiment: Panel of 270 human kinases (Millipore); format: biochemical
T4 construct: purchased Millipore Corporation
T4 sequence (P08581 25-1408 isoform P08581-2 Y1248C limits assumed): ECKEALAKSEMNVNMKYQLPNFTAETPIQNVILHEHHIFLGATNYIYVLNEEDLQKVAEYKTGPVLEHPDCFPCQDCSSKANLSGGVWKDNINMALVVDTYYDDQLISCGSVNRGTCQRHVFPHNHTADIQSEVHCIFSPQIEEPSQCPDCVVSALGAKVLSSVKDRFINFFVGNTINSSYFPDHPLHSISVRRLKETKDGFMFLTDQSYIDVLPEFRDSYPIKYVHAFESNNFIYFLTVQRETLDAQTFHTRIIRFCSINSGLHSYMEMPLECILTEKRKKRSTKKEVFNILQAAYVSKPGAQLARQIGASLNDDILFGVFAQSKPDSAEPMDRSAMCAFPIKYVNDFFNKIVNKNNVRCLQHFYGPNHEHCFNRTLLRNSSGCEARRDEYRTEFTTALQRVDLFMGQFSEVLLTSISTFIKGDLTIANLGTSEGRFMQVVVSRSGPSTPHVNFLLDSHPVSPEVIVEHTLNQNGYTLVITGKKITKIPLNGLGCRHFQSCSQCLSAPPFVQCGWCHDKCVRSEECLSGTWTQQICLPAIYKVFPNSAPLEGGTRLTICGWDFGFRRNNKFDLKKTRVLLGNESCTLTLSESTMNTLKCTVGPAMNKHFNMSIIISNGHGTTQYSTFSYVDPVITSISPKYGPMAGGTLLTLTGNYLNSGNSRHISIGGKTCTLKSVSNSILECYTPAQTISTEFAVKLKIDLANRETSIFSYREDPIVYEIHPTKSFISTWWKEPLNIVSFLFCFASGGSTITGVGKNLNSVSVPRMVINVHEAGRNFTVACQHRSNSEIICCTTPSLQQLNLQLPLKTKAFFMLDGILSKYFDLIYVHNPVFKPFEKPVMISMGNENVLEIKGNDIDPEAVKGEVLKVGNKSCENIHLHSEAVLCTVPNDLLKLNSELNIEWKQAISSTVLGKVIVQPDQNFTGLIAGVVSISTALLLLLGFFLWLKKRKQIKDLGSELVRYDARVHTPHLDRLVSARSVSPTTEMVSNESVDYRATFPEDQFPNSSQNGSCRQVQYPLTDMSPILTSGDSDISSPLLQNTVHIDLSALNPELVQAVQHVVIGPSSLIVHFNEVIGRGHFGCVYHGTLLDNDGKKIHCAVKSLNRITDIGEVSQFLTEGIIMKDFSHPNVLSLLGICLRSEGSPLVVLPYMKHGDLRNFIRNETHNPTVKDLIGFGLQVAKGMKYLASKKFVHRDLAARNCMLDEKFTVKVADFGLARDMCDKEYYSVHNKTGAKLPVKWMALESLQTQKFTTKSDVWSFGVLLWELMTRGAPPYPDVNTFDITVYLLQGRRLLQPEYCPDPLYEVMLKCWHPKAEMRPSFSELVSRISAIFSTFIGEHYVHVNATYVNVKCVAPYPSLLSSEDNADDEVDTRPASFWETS
Protocol: as §1

[6] = molecular target: T5, MELK (Homo sapiens, UniProt Q14680); experiment: Panel of 270 human kinases (Millipore); format: biochemical
T5 construct: purchased Millipore Corporation
T5 sequence (Q14680 whole entry): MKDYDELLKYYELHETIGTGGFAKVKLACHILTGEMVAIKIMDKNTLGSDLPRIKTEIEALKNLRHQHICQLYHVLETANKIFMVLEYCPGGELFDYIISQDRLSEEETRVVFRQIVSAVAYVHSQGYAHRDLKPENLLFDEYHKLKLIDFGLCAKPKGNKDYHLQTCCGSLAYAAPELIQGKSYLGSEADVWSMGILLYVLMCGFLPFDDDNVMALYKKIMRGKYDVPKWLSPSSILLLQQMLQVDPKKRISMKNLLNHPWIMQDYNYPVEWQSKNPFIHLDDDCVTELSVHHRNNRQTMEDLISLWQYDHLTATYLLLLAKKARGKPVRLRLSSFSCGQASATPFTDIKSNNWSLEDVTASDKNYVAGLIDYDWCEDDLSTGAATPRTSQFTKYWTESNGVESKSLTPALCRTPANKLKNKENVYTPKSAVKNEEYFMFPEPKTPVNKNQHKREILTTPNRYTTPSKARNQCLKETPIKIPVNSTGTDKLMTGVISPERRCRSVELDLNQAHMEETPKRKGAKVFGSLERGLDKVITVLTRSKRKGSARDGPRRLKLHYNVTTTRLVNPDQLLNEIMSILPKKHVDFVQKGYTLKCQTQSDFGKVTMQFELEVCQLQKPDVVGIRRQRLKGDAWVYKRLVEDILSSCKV
Protocol: as §1

[7] = molecular target: T6, ALK (Homo sapiens, UniProt Q9UM73); experiment: Panel of 270 human kinases (Millipore); format: biochemical
T6 construct: purchased Millipore Corporation
T6 sequence (Q9UM73 19-1620): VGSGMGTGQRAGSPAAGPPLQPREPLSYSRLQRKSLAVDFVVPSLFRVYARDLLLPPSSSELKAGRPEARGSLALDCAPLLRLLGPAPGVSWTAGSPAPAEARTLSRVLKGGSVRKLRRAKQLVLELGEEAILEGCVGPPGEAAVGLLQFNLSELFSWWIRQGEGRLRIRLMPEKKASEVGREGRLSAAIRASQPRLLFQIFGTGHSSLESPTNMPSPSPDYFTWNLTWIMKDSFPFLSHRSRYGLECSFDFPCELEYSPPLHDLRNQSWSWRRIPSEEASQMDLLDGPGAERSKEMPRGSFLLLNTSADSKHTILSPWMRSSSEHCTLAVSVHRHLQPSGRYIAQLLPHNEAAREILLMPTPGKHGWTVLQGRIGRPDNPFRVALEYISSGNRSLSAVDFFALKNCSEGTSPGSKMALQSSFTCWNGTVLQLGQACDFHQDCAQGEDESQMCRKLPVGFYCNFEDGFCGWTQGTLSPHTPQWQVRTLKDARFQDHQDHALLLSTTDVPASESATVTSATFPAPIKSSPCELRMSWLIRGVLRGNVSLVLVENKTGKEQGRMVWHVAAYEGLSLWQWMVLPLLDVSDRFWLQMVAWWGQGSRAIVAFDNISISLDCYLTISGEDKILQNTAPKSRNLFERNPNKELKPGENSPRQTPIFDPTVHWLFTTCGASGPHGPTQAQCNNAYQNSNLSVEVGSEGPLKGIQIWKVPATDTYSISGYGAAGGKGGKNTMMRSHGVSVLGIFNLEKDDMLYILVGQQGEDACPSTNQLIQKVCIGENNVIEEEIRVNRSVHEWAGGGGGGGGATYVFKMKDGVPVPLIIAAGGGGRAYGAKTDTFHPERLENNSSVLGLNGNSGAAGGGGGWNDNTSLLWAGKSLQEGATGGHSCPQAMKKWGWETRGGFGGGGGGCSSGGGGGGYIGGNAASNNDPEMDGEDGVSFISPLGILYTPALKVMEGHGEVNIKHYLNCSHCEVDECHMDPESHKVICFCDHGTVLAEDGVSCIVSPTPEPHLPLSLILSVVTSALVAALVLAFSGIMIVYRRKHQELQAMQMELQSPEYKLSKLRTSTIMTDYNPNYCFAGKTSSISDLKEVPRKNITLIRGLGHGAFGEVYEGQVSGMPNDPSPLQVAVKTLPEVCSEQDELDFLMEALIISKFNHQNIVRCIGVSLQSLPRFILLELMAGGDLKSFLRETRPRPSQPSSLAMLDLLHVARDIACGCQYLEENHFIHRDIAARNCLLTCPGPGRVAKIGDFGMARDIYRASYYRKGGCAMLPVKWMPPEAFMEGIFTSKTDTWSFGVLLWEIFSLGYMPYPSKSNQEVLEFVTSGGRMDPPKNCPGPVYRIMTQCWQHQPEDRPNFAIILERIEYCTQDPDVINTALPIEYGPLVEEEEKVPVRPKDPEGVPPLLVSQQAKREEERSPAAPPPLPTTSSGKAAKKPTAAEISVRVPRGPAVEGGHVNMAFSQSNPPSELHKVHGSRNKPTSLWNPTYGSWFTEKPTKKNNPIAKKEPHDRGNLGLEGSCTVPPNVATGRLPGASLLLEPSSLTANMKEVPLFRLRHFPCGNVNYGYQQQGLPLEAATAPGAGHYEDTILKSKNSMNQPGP
Protocol: as §1

[8] = molecular target: T7, MUSK (Homo sapiens, UniProt O15146); experiment: Panel of 270 human kinases (Millipore); format: biochemical
T7 construct: purchased Millipore Corporation
T7 sequence (O15146 24-869): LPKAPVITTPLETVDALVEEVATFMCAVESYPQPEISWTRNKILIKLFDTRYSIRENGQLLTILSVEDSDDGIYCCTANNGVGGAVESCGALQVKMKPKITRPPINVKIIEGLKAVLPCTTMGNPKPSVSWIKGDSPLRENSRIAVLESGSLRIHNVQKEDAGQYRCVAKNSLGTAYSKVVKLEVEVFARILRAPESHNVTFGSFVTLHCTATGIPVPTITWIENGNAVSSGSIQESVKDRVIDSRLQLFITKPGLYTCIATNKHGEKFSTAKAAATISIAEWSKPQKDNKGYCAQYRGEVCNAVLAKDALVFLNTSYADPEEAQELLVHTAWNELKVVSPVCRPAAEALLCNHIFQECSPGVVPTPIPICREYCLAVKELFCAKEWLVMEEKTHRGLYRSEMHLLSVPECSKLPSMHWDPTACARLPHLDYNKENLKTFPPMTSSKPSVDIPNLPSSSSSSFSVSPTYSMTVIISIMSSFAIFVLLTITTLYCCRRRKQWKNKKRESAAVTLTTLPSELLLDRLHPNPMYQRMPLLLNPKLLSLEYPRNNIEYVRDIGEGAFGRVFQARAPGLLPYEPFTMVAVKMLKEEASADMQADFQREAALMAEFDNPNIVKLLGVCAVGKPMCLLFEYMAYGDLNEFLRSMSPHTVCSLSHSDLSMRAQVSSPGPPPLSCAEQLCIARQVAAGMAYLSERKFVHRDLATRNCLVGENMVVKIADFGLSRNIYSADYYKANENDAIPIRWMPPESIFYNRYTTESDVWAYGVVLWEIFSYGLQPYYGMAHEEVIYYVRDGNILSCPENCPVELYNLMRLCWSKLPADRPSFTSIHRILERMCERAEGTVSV
Protocol: as §1

[9] = molecular target: T8, JNK3 (Homo sapiens, UniProt P53779); experiment: Panel of 270 human kinases (Millipore); format: biochemical
T8 construct: purchased Millipore Corporation
Protocol: as §1

[10] = molecular target: T9, Aurora-B (Homo sapiens, UniProt Q96GD4); experiment: Panel of 270 human kinases (Millipore); format: biochemical
T9 construct: purchased Millipore Corporation
T9 sequence (Q96GD4 whole entry): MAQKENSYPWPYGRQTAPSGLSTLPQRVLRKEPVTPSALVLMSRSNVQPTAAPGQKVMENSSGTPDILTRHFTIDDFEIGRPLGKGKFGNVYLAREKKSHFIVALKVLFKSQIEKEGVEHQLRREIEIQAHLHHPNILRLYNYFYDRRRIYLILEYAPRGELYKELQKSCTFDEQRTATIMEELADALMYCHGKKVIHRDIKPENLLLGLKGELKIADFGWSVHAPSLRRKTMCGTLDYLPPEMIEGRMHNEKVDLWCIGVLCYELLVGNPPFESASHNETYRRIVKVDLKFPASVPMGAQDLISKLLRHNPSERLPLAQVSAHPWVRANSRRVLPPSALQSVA
Protocol: as §1

[11] = system: colon cancer cells (HCT116); experiment: Cancer cell line growth inhibition (SRB assay); format: cell-based; conditions: Homo sapiens, HCT-116; read-out: Cancer Cell Line GI50 Range HCT116
[12] = system: Breast cancer cells; experiment: Cancer cell line growth inhibition (SRB assay); format: cell-based; conditions: Homo sapiens; MDA-MB-468; read-out: Cancer Cell Line GI50 Range MDA-MB-468
[13] = system: ovarian cancer cells (PA-1); experiment: Cancer cell line growth inhibition (SRB assay); format: cell-based; conditions: Homo sapiens, PA-1; read-out: Cancer Cell Line GI50 Range PA-1
[14] = system: TICs (Colon 12); experiment: Colon tumor-initiating cell growth inhibition (Alamar Blue); format: cell-based; conditions: 216 h; Colon 12 TICs, 9 days; read-out: Tumor Initiating Cell GI50 Range Colon 12

| SMILES | IC50 ([1]; read-out: TTK IC50 Range) [nM] | GI50 [2] [nM] | inhibition at 1 µM [3] [%] | inhibition at 1 µM [4] [%] | inhibition at 1 µM [5] [%] | inhibition at 1 µM [6] [%] | inhibition at 1 µM [7] [%] | inhibition at 1 µM [8] [%] | inhibition at 1 µM [9] [%] | inhibition at 1 µM [10] [%] | GI50 [11] [nM] | GI50 [12] [nM] | GI50 [13] [nM] | GI50 [14] [nM] | IC50 [1] [nM] |
| --- | --- | --- | --- | --- | --- | --- | --- | --- | --- | --- | --- | --- | --- | --- | --- |
| CC(C)[C@H](NC(=O)c1ccc2[nH]nc(-c3ccc(N4CCN(C5COC5)CC4)cc3)c2c1)c1ccccc1Cl [Example A405, (S)-N-(1-(2-chlorophenyl)-2-methylpropyl)-3-(4-(4-(oxetan-3-yl)piperazin-1-yl)phenyl)-1H-indazole-5-carboxamide] | < 100 | < 100 | 65 | 11 | 44 | 92 | 2 | 94 | 81 | 94 | < 100 | < 100 | < 100 | < 100 | – |
| O=C(N[C@H](c1ccccn1)C1CCCC1)c1ccc2[nH]nc(-c3ccc(N4CCN(C5COC5)CC4)cc3)c2c1 [Example A410, (S)-N-(cyclopentyl(pyridin-2-yl)methyl)-3-(4-(4-(oxetan-3-yl)piperazin-1-yl)phenyl)-1H-indazole-5-carboxamide] | < 100 | < 100 | 86 | -8 | 88 | 95 | -3 | 96 | 81 | 92 | < 100 | – | < 100 | < 100 | – |
| O=C(N[C@@H](c1ccccn1)C1CC1)c1ccc2[nH]nc(-c3ccc(N4C5CCC4CC(O)C5)cc3)c2c1 (stereo partly drawn) [Example A363, N-((R)-cyclopropyl(pyridin-2-yl)methyl)-3-(4-((1R,3R,5S)-3-hydroxy-8-azabicyclo[3.2.1]octan-8-yl)phenyl)-1H-indazole-5-carboxamide] | – | < 100 | 48 | 90 | 23 | 80 | 6 | 53 | 90 | 75 | < 100 | – | < 100 | < 100 | < 100 |
| CC1=CC2(CCN(C)CC2)Oc2ccc(-c3n[nH]c4ccc(C(=O)N[C@H](c5ccccn5)C5CCCC5)cc34)cc21 [Example A261, (S)-N-(cyclopentyl(pyridin-2-yl)methyl)-3-(1′,4-dimethylspiro[chromene-2,4′-piperidin]-6-yl)-1H-indazole-5-carboxamide] | < 100 | < 100 | 90 | 8 | 8 | 93 | 86 | 86 | 59 | 49 | < 100 | < 100 | < 100 | 100 to 500 | – |
